Values belong to the molecule of their own block, whether it stands above or below them.
Legend:
Hepatocyte [1] = assay: Cytotoxicity against human hepatocytes assessed as cell viability relative to control; assay type: cell-based
Cytochrome P450 2B6 [2] = biological target: T1, Cytochrome P450 2B6 (Homo sapiens, UniProt P20813); assay: (§1) Induction of CYP2B6 in human hepatocytes at 10 uM after 72 hrs relative to vehicle-treated control; assay type: ADME, cell-based, Hepatocyte; conditions: 72 h, 10 µM
T1 sequence (P20813 whole entry): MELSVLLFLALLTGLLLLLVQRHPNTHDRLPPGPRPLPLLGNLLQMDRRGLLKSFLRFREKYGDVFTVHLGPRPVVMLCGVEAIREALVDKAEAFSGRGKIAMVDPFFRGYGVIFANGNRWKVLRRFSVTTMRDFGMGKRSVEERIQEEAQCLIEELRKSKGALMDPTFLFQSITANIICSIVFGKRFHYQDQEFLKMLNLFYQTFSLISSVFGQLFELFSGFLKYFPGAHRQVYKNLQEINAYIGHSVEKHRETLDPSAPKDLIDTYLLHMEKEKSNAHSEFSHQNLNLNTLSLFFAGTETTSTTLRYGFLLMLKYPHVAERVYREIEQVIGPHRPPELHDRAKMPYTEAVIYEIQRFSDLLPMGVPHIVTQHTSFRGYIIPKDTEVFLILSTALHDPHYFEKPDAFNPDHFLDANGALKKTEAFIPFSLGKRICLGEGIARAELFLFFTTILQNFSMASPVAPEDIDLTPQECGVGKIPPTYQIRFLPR

CYP2B6 [3] = biological target: CYP2B6 (Homo sapiens, UniProt P20813); assay: as §1; assay type: ADME, cell-based, Hepatocyte; conditions: read-out: FC
CYP2C8 = assay: Induction of CYP2C8 mRNA expression in human hepatocytes at 10 uM after 72 hrs by RT-PCR analysis relative to vehicle-treated control; assay type: ADME, cell-based, Hepatocyte; conditions: read-out: FC
CYP3A4 [4] = biological target: CYP3A4 (Homo sapiens, UniProt P08684); assay: (§2) Induction of CYP3A4 in human hepatocytes at 10 uM after 72 hrs relative to vehicle-treated control
Sequence of CYP3A4 (Homo sapiens, UniProt P08684) (P08684 whole entry): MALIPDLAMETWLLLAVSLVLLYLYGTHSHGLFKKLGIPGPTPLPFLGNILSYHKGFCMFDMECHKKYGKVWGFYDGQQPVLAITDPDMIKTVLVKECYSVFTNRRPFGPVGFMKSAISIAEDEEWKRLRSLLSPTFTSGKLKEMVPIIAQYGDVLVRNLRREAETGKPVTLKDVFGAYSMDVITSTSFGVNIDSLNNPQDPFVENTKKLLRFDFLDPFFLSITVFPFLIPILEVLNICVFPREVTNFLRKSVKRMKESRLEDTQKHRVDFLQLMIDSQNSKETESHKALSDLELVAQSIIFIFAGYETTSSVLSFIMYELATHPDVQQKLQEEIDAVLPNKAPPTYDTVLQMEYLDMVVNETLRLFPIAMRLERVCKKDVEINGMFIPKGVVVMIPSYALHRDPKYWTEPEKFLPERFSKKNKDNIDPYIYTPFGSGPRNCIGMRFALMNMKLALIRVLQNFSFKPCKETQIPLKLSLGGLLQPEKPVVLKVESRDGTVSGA

Cytochrome P450 3A4 [5] = biological target: T2, Cytochrome P450 3A4 (Homo sapiens, UniProt P08684); assay: as §2; conditions: 72 h, 10 µM
T2 sequence (P08684 whole entry): as above

CYP2E1 = assay: Induction of CYP2E1 mRNA expression in human hepatocytes at 10 uM after 72 hrs by RT-PCR analysis relative to vehicle-treated control; assay type: ADME, cell-based, Hepatocyte; conditions: read-out: FC
CYP2D6 = assay: Induction of CYP2D6 mRNA expression in human hepatocytes at 10 uM after 72 hrs by RT-PCR analysis relative to vehicle-treated control; assay type: ADME, cell-based, Hepatocyte; conditions: read-out: FC
CYP2C9 [6] = biological target: CYP2C9 (Homo sapiens, UniProt P11712); assay: Induction of CYP2C9 in human hepatocytes at 10 uM after 72 hrs relative to vehicle-treated control; assay type: ADME, cell-based, Hepatocyte; conditions: read-out: FC
Sequence of CYP2C9 (Homo sapiens, UniProt P11712) (P11712 whole entry): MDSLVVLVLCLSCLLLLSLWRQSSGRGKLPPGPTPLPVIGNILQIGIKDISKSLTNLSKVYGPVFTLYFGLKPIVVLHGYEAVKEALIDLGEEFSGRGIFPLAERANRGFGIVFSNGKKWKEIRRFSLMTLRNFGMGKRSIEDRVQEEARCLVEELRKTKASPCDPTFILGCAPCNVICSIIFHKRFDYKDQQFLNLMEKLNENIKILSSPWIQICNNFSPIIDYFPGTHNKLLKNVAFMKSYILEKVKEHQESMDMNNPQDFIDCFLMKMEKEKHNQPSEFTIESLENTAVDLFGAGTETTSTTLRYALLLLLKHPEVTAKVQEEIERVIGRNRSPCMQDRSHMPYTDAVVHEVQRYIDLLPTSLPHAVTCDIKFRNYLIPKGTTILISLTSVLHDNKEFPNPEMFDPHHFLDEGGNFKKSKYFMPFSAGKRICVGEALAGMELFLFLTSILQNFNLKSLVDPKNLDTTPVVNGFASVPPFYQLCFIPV

Cytochrome P450 3A4 [7] = biological target: T2, Cytochrome P450 3A4; assay: Inhibition of recombinant CYP3A4 (unknown origin) incubated for 3 mins prior to NADPH addition measured after 3 mins by LC-MS analysis; assay type: ADME
CYP3A5 = assay: Induction of CYP3A5 mRNA expression in human hepatocytes at 10 uM after 72 hrs by RT-PCR analysis relative to vehicle-treated control
CYP1A2 = assay: Induction of CYP1A2 mRNA expression in human hepatocytes at 10 uM after 72 hrs by RT-PCR analysis relative to vehicle-treated control; assay type: ADME, cell-based, Hepatocyte; conditions: read-out: FC
Cytochrome P450 3A4 [8] = biological target: T2, Cytochrome P450 3A4; assay: Inhibition of CYP3A4 in human liver microsomes incubated for 3 mins prior to NADPH addition measured after 3 mins by LC-MS analysis; assay type: ADME
UGT1A9 = assay: Induction of UGT1A9 mRNA expression in human hepatocytes at 10 uM after 72 hrs by RT-PCR analysis relative to vehicle-treated control; assay type: ADME, cell-based, Hepatocyte; conditions: read-out: FC
CYP2C9 [9] = assay: Induction of CYP2C9 mRNA expression in human hepatocytes at 10 uM after 72 hrs by RT-PCR analysis relative to vehicle-treated control; assay type: ADME, cell-based, Hepatocyte; conditions: read-out: FC
CYP2C19 = assay: Induction of CYP2C19 mRNA expression in human hepatocytes at 10 uM after 72 hrs by RT-PCR analysis relative to vehicle-treated control; assay type: ADME, cell-based, Hepatocyte; conditions: read-out: FC
MRP1 = assay: Induction of MRP1 mRNA expression in human hepatocytes at 10 uM after 72 hrs by RT-PCR analysis relative to vehicle-treated control; assay type: cell-based, Hepatocyte; conditions: read-out: FC
CYP2B6 [10] = assay: (§3) Induction of CYP2B6 mRNA expression in human hepatocytes at 10 uM after 72 hrs by RT-PCR analysis relative to vehicle-treated control; assay type: ADME, cell-based, Hepatocyte; conditions: read-out: FC
Hepatocyte [11] = assay: as §3; assay type: ADME, cell-based; conditions: 72 h, 10 µM
MRP2 = assay: Induction of MRP2 mRNA expression in human hepatocytes at 10 uM after 72 hrs by RT-PCR analysis relative to vehicle-treated control; assay type: cell-based, Hepatocyte; conditions: read-out: FC
CYP3A4 [12] = assay: (§4) Induction of CYP3A4 mRNA expression in human hepatocytes at 10 uM after 72 hrs by RT-PCR analysis relative to vehicle-treated control
Hepatocyte [13] = assay: as §4; conditions: 72 h, 10 µM
UGT2B7 = assay: Induction of UGT2B7 mRNA expression in human hepatocytes at 10 uM after 72 hrs by RT-PCR analysis relative to vehicle-treated control; assay type: ADME, cell-based, Hepatocyte; conditions: read-out: FC
Cytochrome P450 2B6 [14] = biological target: T1, Cytochrome P450 2B6; assay: Inhibition of CYP2B6 in human liver microsomes incubated for 3 mins prior to NADPH addition measured after 10 mins by LC-MS analysis; assay type: ADME
Cytochrome P450 2B6 [15] = biological target: T1, Cytochrome P450 2B6; assay: Inhibition of recombinant CYP2B6 (unknown origin) incubated for 3 mins prior to NADPH addition measured after 10 mins by LC-MS analysis; assay type: ADME
[16] = Chemical stability of the compound in human hepatocyte culture medium assessed as compound remaining at 1 to 50 uM after 24 hrs; assay type: physicochemical; conditions: read-out: Stability
MDR1 = assay: Induction of MDR1 mRNA expression in human hepatocytes at 10 uM after 72 hrs by RT-PCR analysis relative to vehicle-treated control; assay type: ADME, cell-based, Hepatocyte; conditions: read-out: FC
CYP2A6 = assay: Induction of CYP2A6 mRNA expression in human hepatocytes at 10 uM after 72 hrs by RT-PCR analysis relative to vehicle-treated control; assay type: ADME, cell-based, Hepatocyte; conditions: read-out: FC
[17] = biological target: Nuclear receptor subfamily 1 group I member 2 (Homo sapiens, UniProt O75469); assay: Activation of human PXR expressed in human LS174T cells; assay type: ADME, cell-based
Sequence of Nuclear receptor subfamily 1 group I member 2 (O75469 whole entry): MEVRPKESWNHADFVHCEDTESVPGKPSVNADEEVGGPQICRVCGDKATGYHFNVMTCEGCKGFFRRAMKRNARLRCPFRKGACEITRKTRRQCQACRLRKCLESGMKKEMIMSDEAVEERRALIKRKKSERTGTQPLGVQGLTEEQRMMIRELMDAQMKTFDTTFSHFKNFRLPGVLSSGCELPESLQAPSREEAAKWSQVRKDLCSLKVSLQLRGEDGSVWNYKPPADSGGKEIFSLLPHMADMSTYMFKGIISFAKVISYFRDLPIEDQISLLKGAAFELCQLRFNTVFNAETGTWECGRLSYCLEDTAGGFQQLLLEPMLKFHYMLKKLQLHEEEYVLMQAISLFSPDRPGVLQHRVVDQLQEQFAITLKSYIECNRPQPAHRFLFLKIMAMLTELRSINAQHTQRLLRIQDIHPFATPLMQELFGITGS

[18] = Total Cmax in human; assay type: ADME, organism-based; conditions: in vivo
Homo sapiens = species: Homo sapiens; assay: Unbound Cmax in human; assay type: ADME, organism-based; conditions: in vivo
[19] = Chemical stability of the compound in PBS buffer assessed as compound remaining at pH 7.4 after 10 mins; assay type: physicochemical; conditions: read-out: Stability

SMILES: CO[C@H]1/C=C/O[C@@]2(C)Oc3c(C)c(O)c4c(O)c(c(/C=N/N5CCN(C)CC5)c(O)c4c3C2=O)NC(=O)/C(C)=C\C=C\[C@H](C)[C@H](O)[C@@H](C)[C@@H](O)[C@@H](C)[C@H](OC(C)=O)[C@@H]1C [RIFAMPIN]
Activity (Hepatocyte [1]): < 50 µM

Activity (Cytochrome P450 2B6 [2]): 11.3%
fold induction at 72 h, 10 µM (CYP2B6 [3]): 2.9
fold induction at 72 h, 10 µM (CYP2C8): 0.8
fold induction at 72 h, 10 µM (CYP3A4 [4]): 2.1
Activity (Cytochrome P450 3A4 [5]): 5.2%
fold induction at 72 h, 10 µM (CYP2E1): 0.6
fold induction at 72 h, 10 µM (CYP2D6): 0.7
fold induction at 72 h, 10 µM (CYP2C9 [6]): 1.2
IC50 (Cytochrome P450 3A4 [7]): > 125 µM
fold induction at 72 h, 10 µM (CYP3A5): 1
fold induction at 72 h, 10 µM (CYP1A2): 1.1
IC50 (Cytochrome P450 3A4 [8]): > 125 µM
fold induction at 72 h, 10 µM (UGT1A9): 1.4
fold induction at 72 h, 10 µM (CYP2C9 [9]): 1
fold induction at 72 h, 10 µM (CYP2C19): 1.3
fold induction at 72 h, 10 µM (MRP1): 0.8
fold induction at 72 h, 10 µM (CYP2B6 [10]): 3.5
Activity (Hepatocyte [11]): 13.9%
fold induction at 72 h, 10 µM (MRP2): 0.8
fold induction at 72 h, 10 µM (CYP3A4 [12]): 3.4
Activity (Hepatocyte [13]): 7.7%
fold induction at 72 h, 10 µM (UGT2B7): 0.7
IC50 (Cytochrome P450 2B6 [14]): > 125 µM
IC50 (Cytochrome P450 2B6 [15]): > 125 µM
remaining at 24 h, up to 50 µM [16]: 8%
fold induction at 72 h, 10 µM (MDR1): 1
fold induction at 72 h, 10 µM (CYP2A6): 2.2
SMILES: C[C@H]1[C@@H](O)O[C@@H]2O[C@@]3(C)CC[C@H]4[C@H](C)CC[C@@H]1[C@@]24OO3 [ARTENIMOL]
Activity (Hepatocyte [1]): 50 µM

SMILES: C[C@@H]1CC[C@H]2[C@@H](C)C(=O)O[C@@H]3O[C@@]4(C)CC[C@@H]1[C@]32OO4 [ARTEMISININ]
EC50 [17]: 30 µM
Activity (Hepatocyte [1]): < 50 µM
Cmax [18]: 1600 nM
fCmax (Homo sapiens): 0.58 µM
remaining at 10 min [19]: < 15%
remaining at 24 h, up to 50 µM [16]: 38%
